The values that follow come from the supplement of paper PMC13380429.

Common to all, as to conditions: 72 h
The subject of experiment [1] is Vero E6. As to the kind of experiment: drug sensitivity score (DSS) for viability; higher = more toxic; extreme values may be limits of the assay.
The subject of experiment [2] is Calu-3. Described as above.
The test system of experiment [3] is Caco-2. The experiment is described as above.
Experiment [4] concerns Vero E6. As to the kind of experiment: relative viability EC50 (midpoint between 100% and the lowest measured viability); higher = less toxic.
The subject of experiment [5] is Calu-3. The experiment is described as above.
Experiment [6] relates to Caco-2. Described as above.
The subject of experiment [7] is Vero E6. As to the kind of experiment: cell viability relative to DMSO; higher = less toxic.
In experiment [8] the test system is Calu-3. The description is as above.
In experiment [9] the test system is Caco-2. Described as above.
Experiment [10] concerns U2OS. As to the kind of experiment: drug sensitivity score (DSS) for viability; higher = more toxic; extreme values may be limits of the assay.
The subject of experiment [11] is HepG2. Described as above.
In experiment [12] the test system is U2OS. As to the kind of experiment: relative viability EC50 (midpoint between 100% and the lowest measured viability); higher = less toxic.
Experiment [13] relates to U2OS. As to the kind of experiment: cell viability relative to DMSO; higher = less toxic.
In experiment [14] the test system is HepG2. The description is as above.

As to `CCN1CCN(C(=O)N[C@@H](C(=O)N[C@@H]2C(=O)N3C(C(=O)O)=C(CSc4nnnn4C)CS[C@H]23)c2ccc(O)cc2)C(=O)C1=O` [cefoperazone], the drug sensitivity score with Vero E6 [1], with Calu-3 [2] and in the experiment on Caco-2 [3] was 0 throughout. For the same molecule, the “relative viability EC50” value in the experiment on Vero E6 [4], with Calu-3 [5] and in the experiment on Caco-2 [6] was over 10 µM throughout. In addition, the cell viability (commonly a read-out of living cells in per cent, often relative to untreated cells) in the experiment with Vero E6 [7] (1 nM) came out at 96.7%; in the experiment on Vero E6 [7] (10 nM), 104%; with Vero E6 [7] (100 nM) it was 99.5%; in the experiment on Vero E6 [7] (1000 nM) it was 106%; in the experiment on Vero E6 [7] (10000 nM), 98.4%; with Calu-3 [8] (1 nM) it was 89.8%. The cell viability turned out to be 101% in the experiment with Calu-3 [8] (10 nM); 97% in the experiment with Calu-3 [8] (100 nM); 97.1% with Calu-3 [8] (1000 nM); 102% in the experiment with Calu-3 [8] (10000 nM); 98.5% with Caco-2 [9] (1 nM); 107% with Caco-2 [9] (10 nM). For the same molecule, the cell viability is 102% with Caco-2 [9] (100 nM), 100% in the experiment with Caco-2 [9] (1000 nM) and 99.6% in the experiment on Caco-2 [9] (10000 nM).
On to `O=C(/C=C/c1ccc(O)c(O)c1)O[C@@H]1C[C@](O)(C(=O)O)C[C@@H](O)[C@H]1O` [chlorogenic-acid], for which the drug sensitivity score with U2OS [10], with Vero E6 [1], in the experiment on Calu-3 [2] and in the experiment with HepG2 [11] was 0 throughout.
In the case of `C[C@H]1[C@H](C)CC[C@]2(C(=O)O)CC[C@]3(C)C(=CC[C@@H]4[C@@]5(C)C[C@@H](O)[C@H](O)C(C)(C)[C@@H]5CC[C@]43C)[C@H]12` [corosolic-acid], the drug sensitivity score in the experiment with Vero E6 [1], in the experiment on Calu-3 [2] and with Caco-2 [3] was 0 in each case. Also, the “relative viability EC50” value with Vero E6 [4], in the experiment with Calu-3 [5] and in the experiment with Caco-2 [6] was over 10 µM each time. The cell viability with Vero E6 [7] (1 nM) is 101%; with Vero E6 [7] (10 nM) it was 104%; in the experiment on Vero E6 [7] (100 nM), 99.7%; with Vero E6 [7] (1000 nM) it was 104%; in the experiment with Vero E6 [7] (10000 nM), 103%; in the experiment with Calu-3 [8] (1 nM) it was 96.8%. For the same molecule, the cell viability in the experiment on Calu-3 [8] (10 nM) is 106%; in the experiment on Calu-3 [8] (100 nM), 103%; with Calu-3 [8] (1000 nM), 95.3%; in the experiment on Calu-3 [8] (10000 nM), 99.8%; in the experiment on Caco-2 [9] (1 nM), 107%; with Caco-2 [9] (10 nM), 110%. Besides, the cell viability came out at 102% in the experiment on Caco-2 [9] (100 nM), 108% in the experiment with Caco-2 [9] (1000 nM) and 99.6% in the experiment with Caco-2 [9] (10000 nM).
With `C=C1C[C@@]2(O)O[C@@]3(C[C@H]2C(C)C)[C@@H](C)CC[C@@H]13` [curcumol], the drug sensitivity score with Vero E6 [1], in the experiment on Calu-3 [2] and with Caco-2 [3] was 0 each time. Further, the “relative viability EC50” value with Vero E6 [4], with Calu-3 [5] and in the experiment with Caco-2 [6] was over 10 µM each time. For the same molecule, the cell viability in the experiment with Vero E6 [7] (1 nM) was found to be 100%; with Vero E6 [7] (10 nM), 101%; in the experiment with Vero E6 [7] (100 nM), 97.1%; in the experiment with Vero E6 [7] (1000 nM), 91.9%; in the experiment on Vero E6 [7] (10000 nM) it was 102%; in the experiment on Calu-3 [8] (1 nM), 96.4%. Besides, the cell viability in the experiment on Calu-3 [8] (10 nM) worked out at 107%; in the experiment on Calu-3 [8] (100 nM) it was 111%; in the experiment on Calu-3 [8] (1000 nM), 101%; with Calu-3 [8] (10000 nM) it was 106%; in the experiment with Caco-2 [9] (1 nM), 108%; in the experiment on Caco-2 [9] (10 nM) it was 95.3%. In addition, the cell viability in the experiment on Caco-2 [9] (100 nM) was 93.6%; with Caco-2 [9] (1000 nM), 97.3%; with Caco-2 [9] (10000 nM), 103%.
For the molecule `Oc1ccc(OC2CCCCO2)cc1` (centres undefined) [deoxyarbutin], the drug sensitivity score in the experiment with Calu-3 [2] and in the experiment with Caco-2 [3] was 0 each time. Besides, the “relative viability EC50” value in the experiment on Calu-3 [5] and with Caco-2 [6] was over 10 µM throughout. For the same molecule, the cell viability with Calu-3 [8] (1 nM) was determined as 98.1%; in the experiment on Calu-3 [8] (10 nM), 98.2%; in the experiment on Calu-3 [8] (100 nM), 97.4%; in the experiment with Calu-3 [8] (1000 nM) it was 110%; in the experiment with Calu-3 [8] (10000 nM), 92.9%; with Caco-2 [9] (1 nM), 89.2%. In addition, the cell viability with Caco-2 [9] (10 nM) is 99.1%; with Caco-2 [9] (100 nM), 99.1%; in the experiment on Caco-2 [9] (1000 nM), 97.3%; with Caco-2 [9] (10000 nM), 104%.
As for `CCOc1ccc(Cc2nccc3cc(OCC)c(OCC)cc23)cc1OCC` [ethaverine], the drug sensitivity score worked out at 0.3 with U2OS [10]; 0 with Vero E6 [1]; 1.1 with Calu-3 [2]; 3.6 in the experiment with Caco-2 [3]; 5.1 with HepG2 [11]. For the same molecule, the “relative viability EC50” value in the experiment with U2OS [12], in the experiment with Vero E6 [4] and in the experiment with Caco-2 [6] was over 10 µM in each case. The cell viability with U2OS [13] (1 nM) amounted to 93.3%; in the experiment with U2OS [13] (10 nM), 106%; in the experiment on U2OS [13] (100 nM) it was 95.4%; in the experiment with U2OS [13] (1000 nM), 96.6%; with U2OS [13] (10000 nM), 86.1%; in the experiment on Vero E6 [7] (1 nM), 116%. The cell viability with Vero E6 [7] (10 nM) was found to be 90.6%; with Vero E6 [7] (100 nM), 103%; in the experiment on Vero E6 [7] (1000 nM), 95.2%; with Vero E6 [7] (10000 nM), 90.9%; in the experiment with Calu-3 [8] (1 nM) it was 98.8%; in the experiment on Calu-3 [8] (10 nM), 100%. Also, the cell viability was 101% in the experiment on Calu-3 [8] (100 nM); 105% in the experiment with Calu-3 [8] (1000 nM); 69.3% in the experiment on Calu-3 [8] (10000 nM); 89.5% in the experiment on Caco-2 [9] (1 nM); 87.4% in the experiment with Caco-2 [9] (10 nM); 90.3% in the experiment with Caco-2 [9] (100 nM). For the same molecule, the cell viability with Caco-2 [9] (1000 nM) worked out at 82.9%; in the experiment with Caco-2 [9] (10000 nM) it was 77.3%; in the experiment with HepG2 [14] (1 nM), 86.2%; with HepG2 [14] (10 nM), 91.2%; in the experiment with HepG2 [14] (100 nM), 105%; in the experiment on HepG2 [14] (1000 nM), 76.5%. Further, the cell viability in the experiment on HepG2 [14] (10000 nM) stood at 57.3%.
